{"source": "patent US8334302B2", "about": "“Synthesis and anti-proliferative effect of substituted imidazo[4,5-b]pyridine compounds” (Spelman College, priority 2008, dated 2012)", "key": {"[1]": {"tested_on": "PC-3 human prostate cancer cells", "test": "Inhibition of cell proliferation in PC-3 cells, DNA assay (Hoechst 33258)", "assay_type": "cell-based", "details": "for IC50: Homo sapiens, inhibition of PC-3 cells, read-out: PC3 IC50", "procedure": "Cell Culture and Drug Treatment. PC-3 human prostate cancer cells were seeded in duplicate 96 well tissue culture plates at 500 cells/well in 80-μL Dulbecco's […] (DMEM) supplemented with 5% fetal bovine serum (FBS) and nonessential amino acids and 1% equimolar mixture of streptomycin-penicllin. The flasks were incubated in a humidified 95% air/5% CO2 atmosphere. The cells were grown for at least 24 hours to ensure that they were in the early log phase of growth. Cells were then treated with 20-μL drug solutions (stock 10 mM drug solution in DMSO was diluted in DMEM containing 5% FBS such that final DMSO concentration is less than 1%) of appropriate final concentration by serial dilution. Untreated control cells received 20-μL DMEM containing 5% FBS. Six wells of each plate received the same drug concentration. Thus, each data point and error bars are an average and standard deviation of readings from 12 wells treated with identical drug concentration.\nDNA Assay. After appropriate time of incubation, DNA assay was performed. For DNA assay, each culture plate was washed with 25% PBS and incubated in deionized double distilled water for at least one hour at room temperature. Plates were frozen at −70° C. and thawed/equilibrated to room temperature. Hoechst 33258 DNA binding dye was then added to each well in 200-μL of high salt TNE buffer (10 mM Tris, 1 mM EDTA, 2 M NaCl [pH 7.4]) at a final concentration of 6.7-μg/mL. After further incubation at room temperature for 2 hours under protection from light, culture plates were scanned on the CytoFluor 2350™ scanner using the 360/460 nm filter excitation and emission set. Readings from all plates were normalized to the fluorescence of control untreated cells and all data were expressed as the percent control."}, "PDK1(h)": {"target": "T1, PDK1(h) (Homo sapiens, UniProt O15530)", "T1 construct": "purchased Millipore (KinaseProfiler Service)", "T1 sequence (O15530 1-556)": "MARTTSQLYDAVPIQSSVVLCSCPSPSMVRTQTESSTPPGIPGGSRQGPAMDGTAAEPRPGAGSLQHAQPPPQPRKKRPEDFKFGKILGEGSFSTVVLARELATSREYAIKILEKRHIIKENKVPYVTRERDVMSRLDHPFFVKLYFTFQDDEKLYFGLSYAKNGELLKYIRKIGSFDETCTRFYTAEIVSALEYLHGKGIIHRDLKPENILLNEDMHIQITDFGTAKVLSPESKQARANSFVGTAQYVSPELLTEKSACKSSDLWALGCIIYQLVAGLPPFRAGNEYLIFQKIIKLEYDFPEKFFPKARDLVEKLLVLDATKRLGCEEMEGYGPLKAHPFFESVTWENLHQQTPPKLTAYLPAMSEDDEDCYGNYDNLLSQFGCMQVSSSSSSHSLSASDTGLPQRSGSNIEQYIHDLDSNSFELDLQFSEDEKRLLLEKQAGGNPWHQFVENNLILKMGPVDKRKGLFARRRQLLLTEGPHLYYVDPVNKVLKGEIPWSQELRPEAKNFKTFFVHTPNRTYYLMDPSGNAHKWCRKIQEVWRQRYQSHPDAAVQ", "test": "Kinase assay, Millipore KinaseProfiler, radiometric", "assay_type": "biochemical", "details": "PDK1(h) activity in presence of compound"}, "CDK1/cyclinB(h)": {"target": "T2, CDK1/cyclinB(h) (Homo sapiens, UniProt P06493)", "T2 construct": "purchased Millipore (KinaseProfiler Service)", "T2 sequence (P06493 whole entry)": "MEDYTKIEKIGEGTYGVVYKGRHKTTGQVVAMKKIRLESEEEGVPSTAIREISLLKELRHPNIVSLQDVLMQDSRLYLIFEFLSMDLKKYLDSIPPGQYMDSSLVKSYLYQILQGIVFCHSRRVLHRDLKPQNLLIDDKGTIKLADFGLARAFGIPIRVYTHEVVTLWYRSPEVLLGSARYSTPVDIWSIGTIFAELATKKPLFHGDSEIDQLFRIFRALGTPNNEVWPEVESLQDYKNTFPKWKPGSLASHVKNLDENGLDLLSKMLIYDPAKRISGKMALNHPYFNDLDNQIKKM", "T2 sequence (P14635 whole entry partner)": "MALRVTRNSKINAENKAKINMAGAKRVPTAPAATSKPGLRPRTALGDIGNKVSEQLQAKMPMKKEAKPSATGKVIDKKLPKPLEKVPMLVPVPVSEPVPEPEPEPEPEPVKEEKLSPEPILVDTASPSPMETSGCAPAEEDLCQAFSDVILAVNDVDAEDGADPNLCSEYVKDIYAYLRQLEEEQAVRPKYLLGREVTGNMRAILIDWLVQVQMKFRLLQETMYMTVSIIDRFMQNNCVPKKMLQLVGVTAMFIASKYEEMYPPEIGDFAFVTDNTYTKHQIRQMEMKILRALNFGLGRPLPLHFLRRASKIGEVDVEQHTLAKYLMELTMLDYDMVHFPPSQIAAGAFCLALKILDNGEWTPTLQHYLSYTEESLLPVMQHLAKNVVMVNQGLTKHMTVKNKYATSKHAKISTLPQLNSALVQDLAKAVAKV", "test": "Kinase assay, Millipore KinaseProfiler, radiometric", "assay_type": "biochemical", "details": "CDK1/cyclinB(h) activity in presence of compound", "procedure": "(§1) Kinase Assays. Kinase assays were conducted by Millipore's KinaseProfiler Service to determine the amount of ATP phosphorylation that occurs in the presence of a benzimidazole molecule. Kinases assayed included IKKβ, CK2, CDK1/cyclinB, GSK3β, and p70S6K. The desired kinase was treated with the benzimidazole compound The reaction were initiated by the addition of the MgATP mix. After incubation for 40 minutes at room temperature, the reaction is stopped by the addition of 3% phosphoric acid solution. 10 μL of the reaction was then spotted onto a P30 filtermat and washed three times for 5 minutes in 75 mM phosphoric acid and once in methanol prior to drying and scintillation counting. The kinase activity was measured radiometrically to determine the amount of ATP phosphorylation produced. All assays were done in triplicate."}, "p70S6K(h)": {"target": "T3, p70S6K(h) (Homo sapiens, UniProt P23443)", "T3 construct": "purchased Millipore (KinaseProfiler Service)", "T3 sequence (P23443 whole entry)": "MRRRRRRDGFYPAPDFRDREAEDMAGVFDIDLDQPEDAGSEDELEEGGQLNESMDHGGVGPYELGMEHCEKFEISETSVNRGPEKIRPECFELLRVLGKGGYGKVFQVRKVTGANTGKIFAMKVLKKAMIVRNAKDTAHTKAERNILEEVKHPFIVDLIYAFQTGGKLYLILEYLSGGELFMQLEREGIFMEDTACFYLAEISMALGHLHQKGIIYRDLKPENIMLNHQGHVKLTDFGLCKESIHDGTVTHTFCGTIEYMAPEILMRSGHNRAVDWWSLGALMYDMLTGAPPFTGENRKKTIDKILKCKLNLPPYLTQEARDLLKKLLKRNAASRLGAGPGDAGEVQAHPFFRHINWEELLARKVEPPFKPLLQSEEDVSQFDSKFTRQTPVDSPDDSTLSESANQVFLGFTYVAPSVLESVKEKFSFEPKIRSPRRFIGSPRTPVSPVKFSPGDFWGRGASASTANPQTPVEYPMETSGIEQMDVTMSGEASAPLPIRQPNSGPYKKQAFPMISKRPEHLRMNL", "test": "Kinase assay, Millipore KinaseProfiler, radiometric", "assay_type": "biochemical", "details": "p70S6K(h) activity in presence of compound", "procedure": "as §1"}, "CK2(h)": {"target": "T4, CK2(h) (Homo sapiens, UniProt P68400)", "T4 construct": "purchased Millipore (KinaseProfiler Service)", "T4 sequence (P68400 whole entry)": "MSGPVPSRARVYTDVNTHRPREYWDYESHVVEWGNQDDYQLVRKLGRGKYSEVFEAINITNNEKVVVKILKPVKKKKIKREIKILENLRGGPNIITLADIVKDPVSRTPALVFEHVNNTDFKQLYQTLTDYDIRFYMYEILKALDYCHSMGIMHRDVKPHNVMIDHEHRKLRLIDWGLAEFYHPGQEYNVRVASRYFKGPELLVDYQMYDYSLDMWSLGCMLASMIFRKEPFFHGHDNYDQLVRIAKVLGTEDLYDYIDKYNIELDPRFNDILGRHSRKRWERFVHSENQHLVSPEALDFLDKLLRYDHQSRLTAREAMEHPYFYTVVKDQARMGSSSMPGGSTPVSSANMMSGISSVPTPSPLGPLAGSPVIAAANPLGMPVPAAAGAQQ", "T4 sequence (P67870 whole entry partner)": "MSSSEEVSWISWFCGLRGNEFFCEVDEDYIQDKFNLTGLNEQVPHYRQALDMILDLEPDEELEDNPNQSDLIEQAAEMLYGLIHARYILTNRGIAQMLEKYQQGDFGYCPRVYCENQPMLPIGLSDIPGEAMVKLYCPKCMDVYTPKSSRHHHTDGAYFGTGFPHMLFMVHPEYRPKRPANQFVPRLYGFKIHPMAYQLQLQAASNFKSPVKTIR", "test": "Kinase assay, Millipore KinaseProfiler, radiometric", "assay_type": "biochemical", "details": "CK2(h) activity in presence of compound", "procedure": "as §1"}, "GSK3β(h)": {"target": "T5, GSK3β(h) (Homo sapiens, UniProt P49841)", "T5 construct": "purchased Millipore (KinaseProfiler Service)", "T5 sequence (P49841 whole entry)": "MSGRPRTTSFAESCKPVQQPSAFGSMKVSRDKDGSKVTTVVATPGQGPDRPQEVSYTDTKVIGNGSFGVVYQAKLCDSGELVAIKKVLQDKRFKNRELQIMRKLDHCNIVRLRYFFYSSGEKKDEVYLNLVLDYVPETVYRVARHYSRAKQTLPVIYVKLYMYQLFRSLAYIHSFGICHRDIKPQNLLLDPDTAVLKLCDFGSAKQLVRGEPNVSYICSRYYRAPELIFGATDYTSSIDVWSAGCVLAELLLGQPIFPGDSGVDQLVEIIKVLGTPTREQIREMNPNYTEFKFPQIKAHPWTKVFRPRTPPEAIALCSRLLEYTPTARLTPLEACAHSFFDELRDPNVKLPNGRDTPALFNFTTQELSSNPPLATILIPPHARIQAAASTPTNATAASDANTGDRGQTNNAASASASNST", "test": "Kinase assay, Millipore KinaseProfiler, radiometric", "assay_type": "biochemical", "details": "GSK3β(h) activity in presence of compound", "procedure": "as §1"}, "IKKβ(h)": {"target": "T6, IKKβ(h) (Homo sapiens, UniProt O14920)", "T6 construct": "purchased Millipore (KinaseProfiler Service)", "T6 sequence (O14920 1-756)": "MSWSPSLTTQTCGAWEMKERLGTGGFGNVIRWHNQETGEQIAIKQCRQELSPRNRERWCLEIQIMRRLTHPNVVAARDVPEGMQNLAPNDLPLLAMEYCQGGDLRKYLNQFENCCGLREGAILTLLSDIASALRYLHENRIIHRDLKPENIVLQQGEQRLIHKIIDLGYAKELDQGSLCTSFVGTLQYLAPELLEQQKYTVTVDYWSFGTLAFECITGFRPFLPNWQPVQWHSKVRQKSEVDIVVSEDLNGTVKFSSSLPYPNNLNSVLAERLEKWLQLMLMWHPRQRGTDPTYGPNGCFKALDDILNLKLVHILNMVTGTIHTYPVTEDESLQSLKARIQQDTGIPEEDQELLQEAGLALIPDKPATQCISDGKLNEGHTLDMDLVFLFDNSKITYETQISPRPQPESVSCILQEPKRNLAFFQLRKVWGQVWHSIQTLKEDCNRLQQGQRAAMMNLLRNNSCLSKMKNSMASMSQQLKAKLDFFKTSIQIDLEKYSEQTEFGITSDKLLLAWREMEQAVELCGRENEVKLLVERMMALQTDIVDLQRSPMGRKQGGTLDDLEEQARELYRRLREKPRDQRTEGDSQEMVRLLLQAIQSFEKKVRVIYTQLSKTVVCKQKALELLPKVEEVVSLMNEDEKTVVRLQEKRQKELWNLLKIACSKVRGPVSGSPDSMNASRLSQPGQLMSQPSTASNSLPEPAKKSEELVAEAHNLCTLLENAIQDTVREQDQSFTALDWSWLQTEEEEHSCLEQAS", "test": "Kinase assay, Millipore KinaseProfiler, radiometric", "assay_type": "biochemical", "details": "IKKβ(h) activity in presence of compound", "procedure": "as §1"}, "PC-3 cells": {"tested_on": "PC-3 cells", "details": "micromolar concentrations; cited from earlier work"}}, "data": [{"smiles": "NS(=O)(=O)c1ccc(-n2nc(C(F)(F)F)cc2-c2ccc3ccccc3c2)cc1", "note": "[Compound 205]", "values": [{"measurement": "IC50", "setting": "[1]", "value": 10, "unit": "µM"}]}, {"smiles": "NS(=O)(=O)c1ccc(-c2nc3ccccc3n2-c2ccc(Cc3ccccc3)cc2)cc1", "note": "[Compound 209, 4-(1-(4-benzylphenyl)-1H-benzo[d]imidazol-2-yl)benzenesulfonamide]", "values": [{"measurement": "% Activity", "setting": "PDK1(h)", "value": 30, "unit": "%"}, {"measurement": "% Activity", "setting": "CDK1/cyclinB(h)", "value": 36, "unit": "%"}, {"measurement": "% Activity", "setting": "p70S6K(h)", "value": 12, "unit": "%"}, {"measurement": "% Activity", "setting": "CK2(h)", "value": 22, "unit": "%"}, {"measurement": "% Activity", "setting": "GSK3β(h)", "value": 5, "unit": "%"}, {"measurement": "% Activity", "setting": "IKKβ(h)", "value": 25, "unit": "%"}]}, {"smiles": "Cc1ccc(-c2cc(C(F)(F)F)nn2-c2ccc(S(N)(=O)=O)cc2)cc1", "note": "[Compound 201, Celecoxib]", "values": [{"measurement": "IC50", "setting": "[1]", "value": 30, "unit": "µM"}]}, {"smiles": "CC(C)(C)c1ccc(-n2c(-c3ccc(S(N)(=O)=O)cc3)nc3ccccc32)cc1", "note": "[Compound 207, 4-(1-(4-tert-butylphenyl)-1H-benzo[d]imidazol-2-yl)benzenesulfonamide]", "values": [{"measurement": "IC50", "setting": "[1]", "value": 20, "unit": "µM"}]}, {"smiles": "FC(F)(F)c1cc(-c2ccc3c(ccc4ccccc43)c2)n(-c2ccc(-c3nnn[nH]3)cc2)n1", "note": "[Compound 203]", "values": [{"measurement": "IC50", "setting": "[1]", "value": 32, "unit": "µM"}]}, {"smiles": "NS(=O)(=O)c1ccc(-c2nc3ccccc3n2-c2ccc(-c3ccccc3)cc2)cc1", "note": "[Compound 211]", "values": [{"measurement": "% Activity", "setting": "CDK1/cyclinB(h)", "value": 11, "unit": "%"}, {"measurement": "% Activity", "setting": "p70S6K(h)", "value": 17, "unit": "%"}, {"measurement": "% Activity", "setting": "CK2(h)", "value": 99, "unit": "%"}, {"measurement": "% Activity", "setting": "GSK3β(h)", "value": 13, "unit": "%"}, {"measurement": "% Activity", "setting": "IKKβ(h)", "value": 71, "unit": "%"}]}, {"smiles": "CC(C)(C)c1ccc(-c2cc(C(F)(F)F)nn2-c2ccc(S(N)(=O)=O)cc2)cc1", "note": "[Compound 204]", "values": [{"measurement": "IC50", "setting": "[1]", "value": 18, "unit": "µM"}]}, {"smiles": "NS(=O)(=O)c1ccc(-c2nc3ccccc3n2-c2ccc3ccccc3c2)cc1", "note": "[Compound 208]", "values": [{"measurement": "IC50", "setting": "[1]", "value": 10, "unit": "µM"}]}, {"smiles": "N=C(N)Nc1ccc(-n2nc(C(F)(F)F)cc2-c2ccc3c(ccc4ccccc43)c2)cc1", "note": "[Compound 202, OSU-03013]", "values": [{"measurement": "concentration diminishing cell proliferation, relative to celecoxib", "setting": "PC-3 cells", "value": "thirty-fold lower"}, {"measurement": "IC50", "setting": "[1]", "value": 3, "unit": "µM"}]}, {"smiles": "Cc1ccc(-n2c(-c3ccc(S(N)(=O)=O)cc3)nc3ccccc32)cc1", "note": "[Compound 206, 4-[1-(4-methylphenyl)-1H-benzo[d]imidazol-2-yl]benzenesulfonamide]", "values": [{"measurement": "IC50", "setting": "[1]", "value": 24, "unit": "µM"}, {"measurement": "antiproliferative effect in PC-3 cells (in words)", "setting": "[1]; PC-3 human prostate cancer cells, DNA assay, FIG. 1", "value": "slightly more effective"}, {"measurement": "% Activity", "setting": "CDK1/cyclinB(h)", "value": 7, "unit": "%"}, {"measurement": "% Activity", "setting": "p70S6K(h)", "value": 33, "unit": "%"}, {"measurement": "% Activity", "setting": "CK2(h)", "value": 92, "unit": "%"}, {"measurement": "% Activity", "setting": "GSK3β(h)", "value": 72, "unit": "%"}, {"measurement": "% Activity", "setting": "IKKβ(h)", "value": 86, "unit": "%"}]}, {"smiles": "NS(=O)(=O)c1ccc(-c2nc3ccccc3n2-c2ccc(Oc3ccccc3)cc2)cc1", "note": "[Compound 210]", "values": [{"measurement": "% Activity", "setting": "CDK1/cyclinB(h)", "value": 16, "unit": "%"}, {"measurement": "% Activity", "setting": "p70S6K(h)", "value": 18, "unit": "%"}, {"measurement": "% Activity", "setting": "CK2(h)", "value": 99, "unit": "%"}, {"measurement": "% Activity", "setting": "GSK3β(h)", "value": 7, "unit": "%"}, {"measurement": "% Activity", "setting": "IKKβ(h)", "value": 72, "unit": "%"}]}]}
